Data as given in PMC6324813, “Biological evaluation of isoflavonoids from Genista halacsyi using estrogen-target cells: Activities of glucosides compared to aglycones” (PLoS ONE, 2019).
Read-outs that look alike come from different tables or passages of the source.

Tests used:
[1] = target: T1, ERβ (Homo sapiens, UniProt Q92731); test: ER binding competitor assay (fluorescent estrogen ES2), ERβ; parameters: purchased Invitrogen; settings: for RBAβ / RBAα: ERβ-binding selectivity; for RBAβ: RBA = (IC50 estradiol/IC50 compound) × 100, ES2 1 nM, estradiol set equal to 100
[2] = system: Ishikawa cells; test: Induction of AlkP expression in Ishikawa cells; format: cell-based, human; settings: for Induction of Alkaline Phosphatase Expression (Ishikawa cells) AUC (%): % of AUC of luciferase response of archetypal 3, 4, 5 or 8 up to 0.3, 10, 1.0 and 3.0 μM; for Ratio of AUC (AlkP / Lucif): AUCAlkP / AUCluciferase; for EC (25% of 0.1 nM E2 effect): concentration required to achieve 25% of the effect of 0.1 nM E2, read-out: Induction of Alkaline Phosphatase Expression (Ishikawa cells) EC25E2; for EC50: read-out: Induction of Alkaline Phosphatase Expression (Ishikawa cells) EC50E2; for Induction of AlkP expression (Ishikawa cells) Agonism at 1μΜ, class: compounds 1 μM
Description: Induction of AlkP expression of Ishikawa cells is considered as a reliable in vitro measure of estrogenic activity. Assessment of AlkP expression in Ishikawa cells was carried as already described. Briefly, the cells were plated in 96-well plates at a density of 12,000 cells per well in phenol-red-free MEM supplemented with 1 μg/mL insulin and 5% DCC-FBS. […] Data on the dependence of AlkP activity on isoflavonoid concentration were curve fitted using SigmaPlot10 (SPSS Inc) and the numerical data of curve fitting were used to determine AUC as described above, using for the calculation of AUC of a particular AlkP response the very same concentration used for the respective luciferase response. The AUC of AlkP responses of the isoflavonoids of a group were expressed as % of the AUC of the luciferase response of the respective archetypal isoflavone.

[3] = target: T2, ERα (Homo sapiens, UniProt P03372); test: ERE-dependent luciferase gene transcription in MCF-7:D5L cells; format: cell-based; parameters: MCF-7:D5L cells, a clone of MCF-7 cells stably transfected with an Estrogen Response Element (ERE)-endowed reporter plasmid; endogenous in cells; host or cells: MCF-7:D5L (MCF-7 clone carrying pERE-Gl-Luciferase); settings: for Induction of ERE-dependent Luciferase Transcription (MCF-7:D5L cells) AUC (%): % of AUC of luciferase response of archetypal 3, 4, 5 or 8 up to 0.3, 10, 1.0 and 3.0 μM; for Induction of ERE-dependent Luciferase Transcription (MCF-7:D5L cells) EC25E2: concentration required to achieve 25% of the effect of 0.1 nM E2
T2 sequence (P03372 1-595): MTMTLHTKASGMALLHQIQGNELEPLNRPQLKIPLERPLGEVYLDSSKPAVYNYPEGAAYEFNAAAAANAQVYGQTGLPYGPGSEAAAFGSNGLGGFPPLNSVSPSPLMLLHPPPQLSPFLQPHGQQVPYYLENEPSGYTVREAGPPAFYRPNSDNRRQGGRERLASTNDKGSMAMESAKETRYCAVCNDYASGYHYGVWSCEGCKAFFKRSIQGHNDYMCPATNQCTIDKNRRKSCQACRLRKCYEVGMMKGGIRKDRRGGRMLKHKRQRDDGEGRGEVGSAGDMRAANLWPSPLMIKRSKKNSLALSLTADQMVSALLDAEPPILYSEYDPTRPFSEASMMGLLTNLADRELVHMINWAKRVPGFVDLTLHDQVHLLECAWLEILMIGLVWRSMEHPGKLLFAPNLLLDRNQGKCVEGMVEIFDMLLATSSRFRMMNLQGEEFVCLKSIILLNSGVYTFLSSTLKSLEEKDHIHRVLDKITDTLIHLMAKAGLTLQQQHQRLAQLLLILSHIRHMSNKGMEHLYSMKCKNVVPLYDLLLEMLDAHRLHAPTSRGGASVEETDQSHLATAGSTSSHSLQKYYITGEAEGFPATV
Description: (§1) Assessment of ER/ERE-dependent luciferase gene transcription in MCF-7:D5L (express ERα) and HEK:ERβ cells (express ERβ) and determination of ER transcriptional agonism was carried as already described. Briefly, the cells were plated in 96-well plates at a density of 12,000 cells per well in phenol-red-free MEM (MCF-7:D5L cells) or phenol-red-free DMEM (HEK:ERβ cells) supplemented with 1 μg/mL insulin and 5% DCC-FBS. […] The AUC of the isoflavonoids of each group were then expressed as % of the AUC of the respective archetypal isoflavone. Since AUC data combine the efficacy as well as the potency of cell response into a single parameter, the %AUC data were considered here as a more reliable measure of relative ER/ERE-dependent luciferase expression of the test compounds.

[4] = system: MCF-7 cells; test: MCF-7 cell proliferation (MTT); format: cell-based, human; settings: for Induction of cell proliferation (MCF-7 cells) Agonism at 1μΜ, class: compounds 1 μM, 72 h; for activation at 1 µM: Homo sapiens, MCF7, 72 h, read-out: Induction of cell proliferation (MCF-7 cells) Agonism at 1μΜ (% of 0.1nM E2); for MCF-7 cell proliferation agonist effect compared to the effect of 0.1 nM estradiol: isoflavonoids 1 μM, statistically significant effects
Description: Test compound effects on the proliferation of MCF-7 and MDA-MB-231 cells were assessed as previously described.

[5] = target: T2, ERα; test: ER binding competitor assay (fluorescent estrogen ES2), ERα; parameters: purchased Invitrogen; settings: RBA = (IC50 estradiol/IC50 compound) × 100; ES2 1 nM; estradiol set equal to 100
[6] = target: T1, ERβ; test: ERE-dependent luciferase gene transcription in HEK:ERβ cells; format: cell-based; parameters: expressed in transfected cells; host or cells: HEK-293 (HEK:ERβ clone, with pERE-tk-Luciferase)
Description: as §1

[7] = system: HT22 cells; settings: read-out: half maximal concentration for HT22 oxytosis inhibition; cited from earlier work
[8] = Homo sapiens, Ishikawa, concentration required to achieve 50% of the effect of 0.1 nM E2
[9] = concentration required to achieve 50% of the effect of 0.1 nM E2, read-out: Induction of ERE-dependent Luciferase Transcription (MCF-7:D5L cells) EC50E2
[10] = 18 h; read-out: Induction of luciferase gene transcription through ERβ, HEK:ERβ cells, Agonism at 1μΜ (% of 0.1nM E2)
[11] = isoflavonoids 1 μM; statistically significant effects

T1 sequence (Q92731 whole entry): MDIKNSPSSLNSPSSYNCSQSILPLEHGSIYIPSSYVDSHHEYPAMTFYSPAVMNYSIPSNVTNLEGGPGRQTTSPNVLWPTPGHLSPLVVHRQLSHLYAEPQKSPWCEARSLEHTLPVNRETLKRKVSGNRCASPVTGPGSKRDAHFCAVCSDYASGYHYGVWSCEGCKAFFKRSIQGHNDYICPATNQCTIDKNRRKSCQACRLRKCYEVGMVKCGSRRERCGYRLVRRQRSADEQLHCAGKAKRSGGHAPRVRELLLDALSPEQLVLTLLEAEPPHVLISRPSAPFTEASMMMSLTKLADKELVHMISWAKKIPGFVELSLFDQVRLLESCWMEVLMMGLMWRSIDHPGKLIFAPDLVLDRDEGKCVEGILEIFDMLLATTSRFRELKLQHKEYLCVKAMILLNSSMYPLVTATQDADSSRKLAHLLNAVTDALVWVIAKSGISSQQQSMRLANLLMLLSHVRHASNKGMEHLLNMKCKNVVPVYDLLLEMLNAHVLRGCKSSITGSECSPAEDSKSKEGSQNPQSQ

Compound | RBAβ / RBAα [1] | RBAβ [1] | EC50 [2, 8] [µM] | Induction of ERE-dependent Luciferase Transcription (MCF-7:D5L cells) AUC (%) [3] [%] | Induction of luciferase gene transcription, MCF-7:D5L cells, Agonism at 1μΜ, class ([3]; compounds 1 μM, 18 h) | Induction of ERE-dependent Luciferase Transcription (MCF-7:D5L cells) EC25E2 [3] [µM] | EC50 [3, 9] [µM] | RBAα [5] | activation at 1 µM [6, 10] [%] | ERβ-dependent gene transcription agonist effect compared to the effect of 0.1 nM estradiol [6, 11] | AlkP response lower than ERα-transcriptional response (relative AUC ratios) [2] | Induction of Alkaline Phosphatase Expression (Ishikawa cells) AUC (%) [2] [%] | Ratio of AUC (AlkP / Lucif) [2] | EC (25% of 0.1 nM E2 effect) ([2]; Homo sapiens, Ishikawa, 72 h) [µM] | Induction of cell proliferation (MCF-7 cells) Agonism at 1μΜ, class [4] | Induction of AlkP expression (Ishikawa cells) Agonism at 1μΜ, class ([2]; 72 h) | also measured
COc1cc(O)cc2occ(-c3ccc(O)c(O)c3)c(=O)c12 [Compound 7, 5-O-methylorobol] | 1.15 | 0.15 ± 0.04 | 11.8 ± 2.5 | 103±9 | Marginal (⩽10%) | 5.35 ± 0.61 | 9.5 ± 1.57 | 0.13 ± 0.04 | 13 ± 4 | lower than | ~ 30% | 76±15 | 0.74±0.13 | 7.08 ± 0.45 | Marginal (⩽10%) | Marginal (⩽10%) | –
O=c1c(O)c(-c2ccc(O)c(O)c2)oc2cc(O)ccc12 [fisetin] | – | – | – | – | – | – | – | – | – | – | – | – | – | – | – | – | EC50 [7]: ≥ 3 µM
O=c1c(-c2ccc(OC3O[C@H](CO)[C@@H](O)[C@H](O)[C@H]3O)cc2)coc2c(C3O[C@H](CO)[C@@H](O)[C@H](O)[C@H]3O)c(O)cc(O)c12 (stereo partly shown) [Compound 14, 8-C,4΄-O-diglucopyranosyl-genistein] | 2.50 | 0.05 ± 0.02 | – | 30±13 | Marginal (⩽10%) | 3.57 ± 0.58 | – | – | – | lower than | – | 46±10 | 1.53±0.02 | – | Marginal (⩽10%) | Marginal (⩽10%) | AlkP response higher than ERα-transcriptional response (relative AUC ratios) [2]: ~ 40%; EC50 ([2]; Homo sapiens, Ishikawa): 6.42 ± 1.52 µM; EC50 [3]: 7.72 ± 3.08 µM; activation at 1 µM ([6]; 18 h, read-out: Induction of luciferase gene transcription through ERβ, HEK:ERβ cells, Agonism at 1μΜ (% of 0.1nM E2)): 18 ± 1%
Oc1ccc(/C=C/c2cc(O)cc(O)c2)cc1 [resveratrol] | – | – | – | – | – | – | – | – | – | – | – | – | – | – | – | – | EC50 [7]: ≥ 3 µM

Further lines, with some results ahead:

RBAβ / RBAα [1] | RBAβ [1] | EC50 [2, 8] [µM] | Induction of ERE-dependent Luciferase Transcription (MCF-7:D5L cells) AUC (%) [3] [%] | Induction of luciferase gene transcription, MCF-7:D5L cells, Agonism at 1μΜ, class ([3]; compounds 1 μM, 18 h) | Induction of ERE-dependent Luciferase Transcription (MCF-7:D5L cells) EC25E2 [3] [µM] | EC50 [3, 9] [µM] | RBAα [5] | activation at 1 µM [6, 10] [%] | ERβ-dependent gene transcription agonist effect compared to the effect of 0.1 nM estradiol [6, 11] | Compound | AlkP response lower than ERα-transcriptional response (relative AUC ratios) [2] | Induction of Alkaline Phosphatase Expression (Ishikawa cells) AUC (%) [2] [%] | Ratio of AUC (AlkP / Lucif) [2] | EC (25% of 0.1 nM E2 effect) ([2]; Homo sapiens, Ishikawa, 72 h) [µM] | Induction of cell proliferation (MCF-7 cells) Agonism at 1μΜ, class [4] | Induction of AlkP expression (Ishikawa cells) Agonism at 1μΜ, class ([2]; 72 h) | also measured
1.00 | 0.12 ± 0.04 | 2.34 ± 0.65 | 77±17 | Marginal (⩽10%) | 2.20 ± 0.18 | 3.42 ± 0.91 | 0.12 ± 0.05 | – | – | COc1cc(-c2coc3c(C4OC(CO)C(O)C(O)C4O)c(O)cc(O)c3c2=O)ccc1O (stereo not shown) [Compound 13, 8-C-glucopyranosyl-3΄-O-methylorobol] | ~ 30% | 61±11 | 0.79±0.13 | 1.01 ± 0.27 | Marginal (⩽10%) | – | activation at 1 µM ([2]; Homo sapiens, Ishikawa, 72 h, read-out: Induction of AlkP expression (Ishikawa cells) Agonism at 1μΜ (% of 0.1nM E2)): 15 ± 4%; Induction of luciferase gene transcription, HEK:ERβ cells, Agonism at 1μΜ, class ([6]; compounds 1 μM; 18 h): Marginal (⩽10%)
1.50 | – | 8.23 ± 1.24 | 69±5 | Marginal (⩽10%) | 6.50 ± 1.10 | 29.8 ± 5.2 | – | – | – | COc1cc(OC2OC(CO)C(O)C(O)C2O)cc2occ(-c3ccc(O)cc3)c(=O)c12 (stereo not shown) [Compound 10, 7-O-glucopyranosyl-isoprunetin] | – | 109±8 | 1.58±0.12 | 3.48 ± 0.51 | Marginal (⩽10%) | Marginal (⩽10%) | AlkP response higher than ERα-transcriptional response (relative AUC ratios) [2]: ~ 40%; Induction of luciferase gene transcription, HEK:ERβ cells, Agonism at 1μΜ, class ([6]; compounds 1 μM; 18 h): Marginal (⩽10%)
4.50 | – | 2.61 ± 0.29 | 289±14 | – | 0.98 ± 0.07 | 1.57 ± 0.24 | 0.14 ± 0.04 | 81 ± 5 | – | COc1cc(-c2coc3cc(O)cc(OC)c3c2=O)ccc1O [Compound 6, 3΄-methoxyisoprunetin] | ~ 30% | 182±8 | 0.63±0.01 | 1.6 ± 0.05 | – | Marginal (⩽10%) | Induction of luciferase gene transcription through ERα, MCF-7:D5L cells, Agonism at 1μΜ (% of 0.1nM E2) ([3]; compounds 1 μM, estradiol 0.1 nM, 18 h): 22 ± 5 (Weak) ^* % of 0.1nM E2; ERα-dependent gene transcription agonist effect compared to the effect of 0.1 nM estradiol ([3]; isoflavonoids 1 μM, statistically significant effects): lower than; activation at 1 µM [4]: 32 ± 3%; MCF-7 cell proliferation agonist effect compared to the effect of 0.1 nM estradiol [4]: lower than
5.00 | 0.15 ± 0.05 | 7.94 ± 2.28 | 100±14 | Marginal (⩽10%) | 3.72 ± 0.63 | 7.32 ± 2.18 | – | 27 ± 5 | lower than | COc1cc(O)cc2occ(-c3ccc(O)cc3)c(=O)c12 [Compound 4, isoprunetin] | – | 94±16 | 0.94±0.03 | 3.9 ± 0.19 | – | Marginal (⩽10%) | activation at 1 µM [4]: 19 ± 6%; MCF-7 cell proliferation agonist effect compared to the effect of 0.1 nM estradiol [4]: lower than
